Laboratory results published in patent publication US20100120679A1, “Targeting NBS1-ATM Interaction To Sensitize Cancer Cells To Radiotherapy And Chemotherapy” (SOUTHERN RESEARCH INSTITUTE, priority 2006, published 2010).
Peptide text beside a SMILES is read from it. * marks the point of attachment. Biotin = O=C1N[C@H]2[C@H](CS[C@H]2CCCCC(=O)*)N1

How the values were obtained:
[1] = test system: HeLa cells; assay: Length of time the peptides remain in cells (degradation, immunofluorescence)
Experimental: HeLa cells were treated with 10 μM R9, wtNIP, or scNIP for one hour and harvested at indicated time points before they were analyzed by immunofluorescence microscopy staining with an […].
Immunofluorescence microscopy: Exponentially growing cultures of cells were plated on sterile, […] coverslips, and incubated for 24 hours at 37° C. in 5% CO2 humidified air before they are treated with the NIP peptides at room temperature. Coverslips were washed with PBS and fixed with 4% paraformaldehyde-0.25% Triton X-100 for 15 minutes at room temperature, blocked for 30 minutes at room temperature, and incubated with FITC-conjugated streptavidin or anti-γH2AX and phospho-NBS1 antibodies (Rockland Immunochemicals, Gilbertsville, Pa.) for 1 hour at room temperature. Coverslips were then mounted with Vectashield Elite (Vector Labs, Burlingame, Calif.) and observed with a Leica fluorescence microscope. Images were captured at 40× magnification using a Q Imaging Retiga Exi digital camera and analyzed with Image Pro-Plus 5.1 software.
Because the peptides would be used in radiation studies, the length of time the peptides remain in cells was determined to ensure that the peptides would be present throughout the DNA repair process after IR.

[2] = target: T1, NBS1-ATM interaction (Homo sapiens, UniProt Q13315); assay: Co-immunoprecipitation of ATM with NBS1 in peptide-treated cells; assay type: cell-based
T1 construct: endogenous in cells; host or cells: HeLa
T1 sequence (Q13315 whole entry): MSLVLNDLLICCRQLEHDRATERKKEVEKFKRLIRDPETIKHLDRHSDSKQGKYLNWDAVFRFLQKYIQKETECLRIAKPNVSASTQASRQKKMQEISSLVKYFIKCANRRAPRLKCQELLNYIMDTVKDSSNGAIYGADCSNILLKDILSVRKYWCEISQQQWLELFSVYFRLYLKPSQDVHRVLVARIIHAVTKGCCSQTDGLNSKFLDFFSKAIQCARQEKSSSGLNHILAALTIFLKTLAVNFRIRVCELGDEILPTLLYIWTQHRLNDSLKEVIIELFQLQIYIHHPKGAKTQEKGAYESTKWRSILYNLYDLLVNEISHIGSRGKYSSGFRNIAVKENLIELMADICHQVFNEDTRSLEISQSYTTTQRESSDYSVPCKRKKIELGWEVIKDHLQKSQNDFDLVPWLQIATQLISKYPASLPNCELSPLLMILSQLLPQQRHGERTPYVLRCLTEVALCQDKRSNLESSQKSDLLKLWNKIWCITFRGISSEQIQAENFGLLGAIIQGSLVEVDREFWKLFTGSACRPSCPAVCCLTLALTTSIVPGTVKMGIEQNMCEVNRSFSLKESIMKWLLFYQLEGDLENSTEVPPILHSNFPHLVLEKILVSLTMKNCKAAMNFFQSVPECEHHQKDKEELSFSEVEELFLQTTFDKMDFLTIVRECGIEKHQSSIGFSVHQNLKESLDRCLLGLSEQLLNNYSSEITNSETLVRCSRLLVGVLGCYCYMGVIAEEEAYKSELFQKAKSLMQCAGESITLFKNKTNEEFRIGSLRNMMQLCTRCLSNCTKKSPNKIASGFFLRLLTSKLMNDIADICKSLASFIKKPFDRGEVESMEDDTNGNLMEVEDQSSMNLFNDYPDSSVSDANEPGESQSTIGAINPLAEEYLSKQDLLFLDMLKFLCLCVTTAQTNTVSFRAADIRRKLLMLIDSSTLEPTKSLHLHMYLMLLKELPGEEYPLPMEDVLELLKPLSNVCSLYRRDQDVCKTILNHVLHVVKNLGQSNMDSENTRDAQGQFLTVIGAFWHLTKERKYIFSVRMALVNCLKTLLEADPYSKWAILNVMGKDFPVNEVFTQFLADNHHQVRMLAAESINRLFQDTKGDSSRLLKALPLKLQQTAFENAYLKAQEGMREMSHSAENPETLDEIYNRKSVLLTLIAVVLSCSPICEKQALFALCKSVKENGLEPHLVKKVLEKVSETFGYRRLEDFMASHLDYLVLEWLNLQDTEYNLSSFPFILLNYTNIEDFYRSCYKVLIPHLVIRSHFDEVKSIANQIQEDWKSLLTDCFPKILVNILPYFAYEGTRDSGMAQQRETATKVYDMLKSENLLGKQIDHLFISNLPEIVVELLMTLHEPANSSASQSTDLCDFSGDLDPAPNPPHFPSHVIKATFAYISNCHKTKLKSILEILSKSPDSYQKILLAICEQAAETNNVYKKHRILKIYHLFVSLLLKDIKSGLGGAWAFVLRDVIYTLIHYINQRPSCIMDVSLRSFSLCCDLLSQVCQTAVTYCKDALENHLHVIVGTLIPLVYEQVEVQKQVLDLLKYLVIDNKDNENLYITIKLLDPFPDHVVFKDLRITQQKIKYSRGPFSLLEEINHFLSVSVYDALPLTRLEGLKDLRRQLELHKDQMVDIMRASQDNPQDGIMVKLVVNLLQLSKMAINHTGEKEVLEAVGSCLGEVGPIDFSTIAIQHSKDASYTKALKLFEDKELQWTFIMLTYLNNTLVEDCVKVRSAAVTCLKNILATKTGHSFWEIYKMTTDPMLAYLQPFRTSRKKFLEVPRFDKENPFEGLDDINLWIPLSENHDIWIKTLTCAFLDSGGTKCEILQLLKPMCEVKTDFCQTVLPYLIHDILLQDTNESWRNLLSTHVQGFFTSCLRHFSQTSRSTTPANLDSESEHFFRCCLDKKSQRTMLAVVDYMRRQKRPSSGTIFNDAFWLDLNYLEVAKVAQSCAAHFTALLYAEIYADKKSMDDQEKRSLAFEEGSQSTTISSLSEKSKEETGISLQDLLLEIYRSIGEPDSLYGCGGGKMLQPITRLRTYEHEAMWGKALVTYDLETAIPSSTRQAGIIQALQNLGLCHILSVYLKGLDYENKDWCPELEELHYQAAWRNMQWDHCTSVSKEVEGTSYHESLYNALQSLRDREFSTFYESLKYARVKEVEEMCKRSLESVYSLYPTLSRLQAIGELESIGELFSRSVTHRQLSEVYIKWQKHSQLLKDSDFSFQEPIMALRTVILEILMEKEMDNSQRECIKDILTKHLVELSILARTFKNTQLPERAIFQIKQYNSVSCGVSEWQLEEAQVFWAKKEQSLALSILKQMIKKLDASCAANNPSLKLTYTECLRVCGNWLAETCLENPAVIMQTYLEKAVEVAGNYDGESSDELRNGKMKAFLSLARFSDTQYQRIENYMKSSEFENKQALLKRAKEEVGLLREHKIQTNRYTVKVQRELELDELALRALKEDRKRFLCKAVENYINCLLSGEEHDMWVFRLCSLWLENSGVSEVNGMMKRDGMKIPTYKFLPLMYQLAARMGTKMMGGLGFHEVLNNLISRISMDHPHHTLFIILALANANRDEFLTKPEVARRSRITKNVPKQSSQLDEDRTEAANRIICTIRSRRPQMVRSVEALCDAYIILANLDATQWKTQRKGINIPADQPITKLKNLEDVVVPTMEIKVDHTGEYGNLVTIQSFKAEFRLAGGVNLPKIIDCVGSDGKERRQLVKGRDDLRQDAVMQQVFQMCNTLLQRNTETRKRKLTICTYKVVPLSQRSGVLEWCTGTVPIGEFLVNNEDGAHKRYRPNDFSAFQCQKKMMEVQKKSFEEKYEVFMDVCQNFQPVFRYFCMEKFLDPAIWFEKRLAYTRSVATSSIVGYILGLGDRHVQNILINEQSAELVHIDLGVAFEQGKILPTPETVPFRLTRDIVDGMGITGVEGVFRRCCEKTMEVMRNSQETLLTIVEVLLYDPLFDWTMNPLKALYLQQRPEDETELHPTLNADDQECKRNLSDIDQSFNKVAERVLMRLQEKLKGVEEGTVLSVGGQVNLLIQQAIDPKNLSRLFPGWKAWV
Experimental: HeLa cells treated with the NIP peptides were irradiated (0 or 6Gy). Immunoprecipitation was performed with a rabbit NBS1 antibody, and Western blotting was performed with monoclonal antibodies against ATM, NBS1 or MRE11.
Immunoprecipitation and Western blotting: For co-immunoprecipitation of ATM, NBS1 and MRE11, cells were lysed 1 hour in ice-cold lysis buffer, which consisted of 10 mM Tris-HCl (pH 7.5), 100 mM NaCl, 5 mM EDTA, 0.5% NP-40, 5 mM Na3VO4, 1 mM NaF, and 1 mM PMSF. After centrifugation, supernatants were incubated with indicated antibodies. After extensive washing with the lysis buffer, immunoprecipitates were analyzed by immunoblot using specific antibodies. For western blotting analysis, samples (cell lysates or immunoprecipitates) were separated on 4-12% SDS-poly-acrylamide gels, transferred to nitrocellulose membranes, and probed with various antibodies.
wtNIP Abrogated the NBS1-ATM Interaction: To investigate whether R9-conjugated NIP peptides could inhibit NBS1-ATM interactions, coimmunoprecipitation experiments were performed in cells treated with the NIP peptides. Four hours after peptide treatment, HeLa cells were harvested and subjected to immunoprecipitation using an anti-NBS1 antibody. The immunoprecipitates were then blotted with anti-ATM, NBS1, and MRE11 antibodies.

[3] = test system: NBS1 phosphorylation on serine 343 in DU-145 cells; assay: IR-induced NBS1 pSer343 focus formation, DU-145; assay type: cell-based, human; settings: DU-145, 10 μM peptide, 6Gy, 120 minutes
From the text: Error bars represent +/−1 SD, graphed are the mean of three independent experiments.
To further support the idea that wtNIP can inhibit ATM-mediated DNA damage pathways, IR-induced NBS1 focus formation, an event considered to be an ATM-dependent process at the sites of DSBs (Lim et al., 2000) was investigated. NBS1 foci are a result of ATM-mediated NBS1 phosphorylation on serine 343. […] The average number of foci in mock-irradiated HeLa cells was 6, 8, and 6 for R9, wtNIP, and scNIP, respectively.

[4] = test system: prostate cancer cell line DU-145; assay: Colony formation assay (radiosensitivity), DU-145; assay type: cell-based, human
Experimental: (§1) Colony number was determined with a dissecting microscope. […] The following formula was used: […]
Radiation survival curves were characterized based on Do to define the effect of NIP effect on radiosensitivity. D0 represents the mean lethal dose required for 37% survival and is a measure of the intrinsic radiosensitivity of the cell. D0 values for HeLa treated with wtNIP were 1.9 compared with 3.0 for cells treated with scNIP. To establish the statistical significance of wtNIP-induced radiosensitivity, Student's t test (paired two-sample for means) was incorporated. […] Significant differences (p<0.05) in clonogenic survival were observed between cells treated with wtNIP and those treated with DMEM, R9, or scNIP. The SER was 1.58. […] These observations have been confirmed in the prostate cancer cell line DU-145 with an SER of 1.46. Taken as a whole, they provide strong evidence for the radiosensitizing potential of the wtNIP peptide.

[5] = test system: M059J cells (defective DNA-PKcs); assay: Colony formation assay (radiosensitivity), M059J; assay type: cell-based
Experimental: as §1
(§2) To test this possibility, colonyforming assays were performed in cell lines with defective ATM (GM9607) or DNA-PKcs (M059J). […] Because GM9607 cells are ATM-deficient and have functional ATR and DNA-PKcs, these observations strongly indicate that wtNIP can specifically target ATM, but not ATR or DNA-PKcs, to achieve radiosensitization.

[6] = test system: GM9607 cells (defective ATM); assay: Colony formation assay (radiosensitivity), GM9607; assay type: cell-based, human
Experimental: as §1, §2

SMILES: CC(C)C[C@H](NC(=O)[C@H](CC(=O)O)NC(=O)[C@H](CC(=O)O)NC(=O)[C@H](C)NC(=O)[C@H](CC(C)C)NC(=O)[C@H](CO)NC(=O)[C@H](CCC(=O)O)NC(=O)[C@H](CCC(=O)O)NC(=O)[C@H](CCCCN)NC(=O)[C@H](CCCNC(=N)N)NC(=O)[C@H](CCCNC(=N)N)NC(=O)[C@H](CCCNC(=N)N)NC(=O)[C@H](CCCNC(=N)N)NC(=O)[C@H](CCCNC(=N)N)NC(=O)[C@H](CCCNC(=N)N)NC(=O)[C@H](CCCNC(=N)N)NC(=O)[C@H](CCCNC(=N)N)NC(=O)[C@H](CCCNC(=N)N)NC(=O)CCCC[C@@H]1SC[C@@H]2NC(=O)N[C@@H]21)C(=O)O [wtNIP] (Biotin-RRRRRRRRRKEESLADDL-OH)
- presence of peptides in cells [1]: strong distribution
- ATM-NBS1 association (anti-NBS1 immunoprecipitation, anti-ATM blot) ([2]; HeLa cells treated with IR): effect similar to that in unirradiated cells
- ATM-NBS1 association (anti-NBS1 immunoprecipitation, anti-ATM blot) ([2]; HeLa cells, four hours after peptide treatment, unirradiated): NBS1 was no longer able to bring down ATM
- IR-induced NBS1 phosphorylation [3]: abrogates IR-induced NBS1 phosphorylation
- SER [4]: 1.46
- SER [5]: 1.83
- change in radiosensitivity [5]: increase in radiosensitivity
- change in radiosensitivity [6]: no change in radiosensitivity
